Measured values from ChEMBL document CHEMBL3885881, “DrugMatrix”.

Species on record: Rattus norvegicus
Assay: DrugMatrix - Regimen: Daily Repeat
Type: toxicity, organism-based, Sprague-Dawley
Design: regimen Daily Repeat, gender Male, age 6-8 weeks
Conditions: in vivo, po, route oral GAVAGE, vehicle 100 % WATER; for ABSOLUTE BASOPHIL / ABSOLUTE EOSINOPHIL / ABSOLUTE LYMPHOCYTE / ABSOLUTE MONOCYTE / ABSOLUTE SEGMENTED NEUTROPHIL / BASOPHIL / EOSINOPHIL / ERYTHROCYTE COUNT / HEMATOCRIT / HEMOGLOBIN / LEUKOCYTE COUNT / LYMPHOCYTE / MEAN CORPUSCULAR HEMOGLOBIN / MEAN CORPUSCULAR HEMOGLOBIN CONCENTRATION / MEAN CORPUSCULAR VOLUME / MONOCYTE / NEUTROPHIL / NUCLEATED RED BLOOD CELLS / PLATELET COUNT: tissue Blood; for ALANINE AMINOTRANSFERASE / ALBUMIN / ALKALINE PHOSPHATASE / ASPARTATE AMINOTRANSFERASE / BLOOD UREA NITROGEN / CARBON DIOXIDE / CHLORIDE / CHOLESTEROL / CREATINE PHOSPHOKINASE / CREATININE / GLUCOSE / LACTATE DEHYDROGENASE / LIPASE / PHOSPHORUS / POTASSIUM / SODIUM / TOTAL BILIRUBIN / TOTAL PROTEIN / URIC ACID: tissue Plasma
[1] = 0 mg/kg, 72 h, dose level Control, time 3 day
[2] = 0 mg/kg, 120 h, dose level Control, time 5 day
[3] = 100 mg/kg, 72 h, dose level Low, time 3 day

SMILES: CC(C)(S)[C@@H](N)C(=O)O [PENICILLAMINE]
- ABSOLUTE BASOPHIL [1]: 0 CELLS/uL
- ABSOLUTE EOSINOPHIL [1]: 0 CELLS/uL
- ABSOLUTE LYMPHOCYTE [1]: 7802.17 CELLS/uL
- ABSOLUTE MONOCYTE [1]: 13.5 CELLS/uL
- ABSOLUTE SEGMENTED NEUTROPHIL [1]: 617.67 CELLS/uL
- BASOPHIL [1]: 0%
- EOSINOPHIL [1]: 0%
- ERYTHROCYTE COUNT [1]: 5.35 x10E6/uL
- HEMATOCRIT [1]: 33.02%
- HEMOGLOBIN [1]: 12.88 G/DL
- LEUKOCYTE COUNT [1]: 8.43 x10E3/uL
- LYMPHOCYTE [1]: 92.67%
- MEAN CORPUSCULAR HEMOGLOBIN [1]: 24.12 pg
- MEAN CORPUSCULAR HEMOGLOBIN CONCENTRATION [1]: 39.03 G/DL
- MEAN CORPUSCULAR VOLUME [1]: 61.8 fL
- MONOCYTE [1]: 0.17%
- NEUTROPHIL [1]: 7.17%
- NUCLEATED RED BLOOD CELLS [1]: 0 /100WBC
- PLATELET COUNT [1]: 1124.83 x10E3/uL
- ALANINE AMINOTRANSFERASE [1]: 54.17 u/L
- ALBUMIN [1]: 4.07 G/DL
- ALKALINE PHOSPHATASE [1]: 383.83 u/L
- ASPARTATE AMINOTRANSFERASE [1]: 82.17 u/L
- BLOOD UREA NITROGEN [1]: 13.67 mg/dL
- CARBON DIOXIDE [1]: 31 mmol/L
- CHLORIDE [1]: 100.83 MEQ/L
- CHOLESTEROL [1]: 65.17 mg/dL
- CREATINE PHOSPHOKINASE [1]: 228.33 u/L
- CREATININE [1]: 0.12 mg/dL
- GLUCOSE [1]: 148 mg/dL
- LACTATE DEHYDROGENASE [1]: 97.83 u/L
- LIPASE [1]: 9.17 u/L
- PHOSPHORUS [1]: 9.75 mg/dL
- POTASSIUM [1]: 5.85 MEQ/L
- SODIUM [1]: 147.02 MEQ/L
- TOTAL BILIRUBIN [1]: 0.18 mg/dL
- TOTAL PROTEIN [1]: 6.1 G/DL
- URIC ACID [1]: 0.5 mg/dL
- ABSOLUTE BASOPHIL [2]: 0 CELLS/uL
- ABSOLUTE EOSINOPHIL [2]: 0 CELLS/uL
- ABSOLUTE LYMPHOCYTE [2]: 10538 CELLS/uL
- ABSOLUTE MONOCYTE [2]: 15.83 CELLS/uL
- ABSOLUTE SEGMENTED NEUTROPHIL [2]: 762.83 CELLS/uL
- BASOPHIL [2]: 0%
- EOSINOPHIL [2]: 0%
- ERYTHROCYTE COUNT [2]: 5.49 x10E6/uL
- HEMATOCRIT [2]: 34.63%
- HEMOGLOBIN [2]: 13.72 G/DL
- LEUKOCYTE COUNT [2]: 11.32 x10E3/uL
- LYMPHOCYTE [2]: 92.67%
- MEAN CORPUSCULAR HEMOGLOBIN [2]: 24.97 pg
- MEAN CORPUSCULAR HEMOGLOBIN CONCENTRATION [2]: 39.57 G/DL
- MEAN CORPUSCULAR VOLUME [2]: 63.05 fL
- MONOCYTE [2]: 0.17%
- NEUTROPHIL [2]: 7.17%
- NUCLEATED RED BLOOD CELLS [2]: 0.17 /100WBC
- PLATELET COUNT [2]: 802 x10E3/uL
- ALANINE AMINOTRANSFERASE [2]: 50.5 u/L
- ALBUMIN [2]: 4.07 G/DL
- ALKALINE PHOSPHATASE [2]: 336.83 u/L
- ASPARTATE AMINOTRANSFERASE [2]: 81 u/L
- BLOOD UREA NITROGEN [2]: 14.17 mg/dL
- CARBON DIOXIDE [2]: 32 mmol/L
- CHLORIDE [2]: 98.33 MEQ/L
- CHOLESTEROL [2]: 69.17 mg/dL
- CREATINE PHOSPHOKINASE [2]: 253.33 u/L
- CREATININE [2]: 0.13 mg/dL
- GLUCOSE [2]: 153.67 mg/dL
- LACTATE DEHYDROGENASE [2]: 157 u/L
- LIPASE [2]: 9 u/L
- PHOSPHORUS [2]: 10.78 mg/dL
- POTASSIUM [2]: 6.11 MEQ/L
- SODIUM [2]: 144.57 MEQ/L
- TOTAL BILIRUBIN [2]: 0.15 mg/dL
- TOTAL PROTEIN [2]: 6.05 G/DL
- URIC ACID [2]: 0.73 mg/dL
- ABSOLUTE BASOPHIL [3]: 0 CELLS/uL
- ABSOLUTE EOSINOPHIL [3]: 0 CELLS/uL
- ABSOLUTE LYMPHOCYTE [3]: 8040.67 CELLS/uL
- ABSOLUTE MONOCYTE [3]: 62.33 CELLS/uL
- ABSOLUTE SEGMENTED NEUTROPHIL [3]: 563.67 CELLS/uL
- BASOPHIL [3]: 0%
- EOSINOPHIL [3]: 0%
- ERYTHROCYTE COUNT [3]: 5.32 x10E6/uL
- HEMATOCRIT [3]: 34.33%
- HEMOGLOBIN [3]: 13 G/DL
- LEUKOCYTE COUNT [3]: 8.67 x10E3/uL
- LYMPHOCYTE [3]: 92.67%
- MEAN CORPUSCULAR HEMOGLOBIN [3]: 24.53 pg
- MEAN CORPUSCULAR HEMOGLOBIN CONCENTRATION [3]: 37.9 G/DL
- MEAN CORPUSCULAR VOLUME [3]: 64.67 fL
- MONOCYTE [3]: 0.67%
- NEUTROPHIL [3]: 6.67%
- NUCLEATED RED BLOOD CELLS [3]: 0 /100WBC
- PLATELET COUNT [3]: 991.33 x10E3/uL
- ALANINE AMINOTRANSFERASE [3]: 51 u/L
- ALBUMIN [3]: 4.03 G/DL
- ALKALINE PHOSPHATASE [3]: 403.33 u/L
- ASPARTATE AMINOTRANSFERASE [3]: 82.33 u/L
- BLOOD UREA NITROGEN [3]: 13.67 mg/dL
- CARBON DIOXIDE [3]: 32.33 mmol/L
- CHLORIDE [3]: 100.33 MEQ/L
- CHOLESTEROL [3]: 73.33 mg/dL
- CREATINE PHOSPHOKINASE [3]: 332 u/L
- CREATININE [3]: 0.11 mg/dL
- GLUCOSE [3]: 145.67 mg/dL
- LACTATE DEHYDROGENASE [3]: 165 u/L
- LIPASE [3]: 9 u/L
- PHOSPHORUS [3]: 10 mg/dL
- POTASSIUM [3]: 5.88 MEQ/L
- SODIUM [3]: 145.23 MEQ/L
- TOTAL BILIRUBIN [3]: 0.13 mg/dL
- TOTAL PROTEIN [3]: 5.93 G/DL
- URIC ACID [3]: 0.73 mg/dL
